PubChem BioAssay AID1259408 (Genetic Toxicology Data Bank (GENE-TOX), 2018)
Calls of active or inactive are those of the source. How the calls were made is not given here.

Tested on: GENE-TOX genotoxicity assays, various organisms and cells
Test: GENE-TOX mutagenicity studies
Details: for call: Assay Type: In vivo carcinogenicity studies, Assay Code: CCG+
[1] = Species/Cell Type: Escherichia coli polA (W3119 vs P3478), Assay Type: Rec-assay, DNA effects (bacterial DNA repair), Assay Code: RE1+, Evaluation Type: Evaluation A (Pre-1980)
[2] = Species/Cell Type: Fischer rat embryo (RLV/1706) cells, Assay Type: Cell transformation, viral enhanced, Assay Code: CTR+, Evaluation Type: Evaluation A (Pre-1980)
[3] = Species/Cell Type: Mammalian polychromatic erythrocytes, Assay Type: Micronucleus test, chromosome aberrations, Assay Code: MNT+, Evaluation Type: Evaluation B (Post-1980)
[4] = Species/Cell Type: Neurospora crassa, Assay Type: Forward gene mutation, Assay Code: NEF+, Evaluation Type: Evaluation A (Pre-1980)
[5] = Species/Cell Type: Nonhuman, Evaluation Type: Evaluation A (Pre-1980)
[6] = Species/Cell Type: Saccharomyces cerevisiae, Assay Type: Mitotic recombination or gene conversion, Assay Code: YEC+, Evaluation Type: Evaluation A (Pre-1980)
[7] = Species/Cell Type: Salmonella typhimurium (one or more of the five standard strains: TA98, TA100, TA1535, TA1537, and TA1538), Assay Type: Histidine reverse gene mutation, Ames assay, Assay Code: SAL+, Evaluation Type: Evaluation A (Pre-1980)
[8] = Species/Cell Type: Salmonella typhimurium, Assay Type: Forward and reverse gene mutation, host-mediated assay, Assay Code: HMA+, Evaluation Type: Evaluation A (Pre-1980)
[9] = Species/Cell Type: Salmonella typhimurium (one or more of the five standard strains: TA98, TA100, TA1535, TA1537, and TA1538), Assay Type: Histidine reverse gene mutation, Ames assay, Assay Code: SAL+*, Activation: With metabolic activation, Evaluation Type: Evaluation A (Pre-1980)

CCN(N=O)C(N)=O
mutagenic call (Species/Cell Type: Arabidopsis species, Assay Type: Gene mutation, Assay Code: ARM+D, Dose Response: With dose response, Evaluation Type: Evaluation A (Pre-1980)): active; positive
mutagenic call (Species/Cell Type: Chinese hamster ovary (CHO) cells, Assay Type: Forward gene mutation at the HPRT locus, Assay Code: CHO+D, Dose Response: With dose response, Evaluation Type: Evaluation A (Pre-1980)): active; positive
mutagenic call (Species/Cell Type: Drosophila melanogaster, Assay Type: Aneuploidy, partial sex chromosome loss, chromosome aberrations, Assay Code: DAP+M, Evaluation Type: Evaluation A (Pre-1980)): active; positive
mutagenic call (Species/Cell Type: Drosophila melanogaster, Assay Type: Aneuploidy, whole sex chromosome loss, chromosome aberrations, Assay Code: DAC+M, Evaluation Type: Evaluation A (Pre-1980)): active; positive
mutagenic call (Species/Cell Type: Drosophila melanogaster, Assay Type: Sex-linked recessive lethal gene mutation, Assay Code: SRL+, Evaluation Type: Evaluation A (Pre-1980)): active; positive
mutagenic call (Species/Cell Type: Drosophila melanogaster, Sex: Male, Assay Type: Heritable translocation test, chromosome aberrations, Assay Code: DHTT, Evaluation Type: Evaluation A (Pre-1980)): no conclusion
mutagenic call [1]: active; positive
mutagenic call [2]: active; positive
mutagenic call (Species/Cell Type: Hordeum vulgare (barley), Assay Type: Chromosome aberrations, Assay Code: HOC+, Evaluation Type: Evaluation A (Pre-1980)): active; positive
mutagenic call (Species/Cell Type: Hordeum vulgare (barley), Assay Type: Gene mutation, Assay Code: HOM+, Evaluation Type: Evaluation A (Pre-1980)): active; positive
mutagenic call (Species/Cell Type: Human diploid fibroblasts, Assay Type: Unscheduled DNA synthesis (UDS) in vitro, DNA effects, Assay Code: UDH+, Evaluation Type: Evaluation A (Pre-1980)): active; positive
mutagenic call (Species/Cell Type: Human lymphocytes or leukocytes, Assay Type: Chromosome aberrations in vitro, Assay Code: CY7+D, Dose Response: With dose response, Evaluation Type: Evaluation A (Pre-1980)): active; positive
mutagenic call (Species/Cell Type: Human, Assay Type: Sister-chromatid exchange (SCE) in vitro, Assay Code: SC1+, Evaluation Type: Evaluation A (Pre-1980)): active; positive
mutagenic call [3]: active; positive
mutagenic call (Species/Cell Type: Mouse germ cells, Sex: Male, Assay Type: Unscheduled DNA synthesis (UDS) in vivo, DNA effects, Assay Code: UDT+, Evaluation Type: Evaluation A (Pre-1980)): active; positive
mutagenic call (Species/Cell Type: Mouse, Sex: Female, Assay Type: Spot test, gene mutation, Assay Code: MST+, Evaluation Type: Evaluation A (Pre-1980)): active; positive
mutagenic call (Species/Cell Type: Mouse, Sex: Male, Assay Type: Specific locus test, gene mutation, Assay Code: SLT+, Evaluation Type: Evaluation A (Pre-1980)): active; positive
mutagenic call [4]: active; positive
mutagenic call (Species/Cell Type: Nonhuman bone marrow, Assay Type: Chromosome aberrations, in vivo, Assay Code: CY#+, Evaluation Type: Evaluation A (Pre-1980)): active; positive
call [5]: active; positive
mutagenic call (Species/Cell Type: Nonhuman, Assay Type: Sister-chromatid exchange (SCE) in vitro, Assay Code: SC2+D, Dose Response: With dose response, Evaluation Type: Evaluation A (Pre-1980)): active; positive
mutagenic call (Species/Cell Type: Nonhuman, Assay Type: Sister-chromatid exchange (SCE) in vivo, Assay Code: SC3+D, Dose Response: With dose response, Evaluation Type: Evaluation B (Post-1980)): active; positive
mutagenic call [6]: active; positive
mutagenic call (Species/Cell Type: Saccharomyces cerevisiae, Assay Type: Mitotic recombination or gene conversion, Assay Code: YEH+, Evaluation Type: Evaluation A (Pre-1980)): active; positive
mutagenic call [7]: active; positive
mutagenic call [8]: active; positive
mutagenic call (Species/Cell Type: Syrian hamster embryo (SHE) cells, Assay Type: Cell transformation, clonal assay, Assay Code: CTCT, Evaluation Type: Evaluation A (Pre-1980)): no conclusion
mutagenic call (Species/Cell Type: Vicia faba, Assay Type: Chromosome aberrations, Assay Code: VIC+, Evaluation Type: Evaluation A (Pre-1980)): active; positive
mutagenic call (Species/Cell Type: Zea mays (corn), Assay Type: Gene mutation, Assay Code: ZEM+D, Dose Response: With dose response, Evaluation Type: Evaluation A (Pre-1980)): active; positive

CCN(CC)CCOc1ccc(C(=C(Cl)c2ccccc2)c2ccccc2)cc1
mutagenic call (Species/Cell Type: Human, Sex: Male, Assay Type: Sperm morphology, Assay Code: SPHT, Evaluation Type: Evaluation A (Pre-1980)): no conclusion
mutagenic call (Species/Cell Type: Mammalian polychromatic erythrocytes, Assay Type: Micronucleus test, chromosome aberrations, Assay Code: MNTT, Evaluation Type: Evaluation B (Post-1980)): no conclusion

Cc1c2c(c3ccc4ccccc4c3c1C)CCC2=O
mutagenic call [9]: active; positive

NC(=O)c1ccccc1
mutagenic call (Species/Cell Type: Human, Assay Type: Sister-chromatid exchange (SCE) in vitro, Assay Code: SC1+, Evaluation Type: Evaluation B (Post-1980)): active; positive
mutagenic call (Species/Cell Type: Mammalian polychromatic erythrocytes, Assay Type: Micronucleus test, chromosome aberrations, Assay Code: MNT+U, Dose Response: Unconfirmed positive response, Evaluation Type: Evaluation B (Post-1980)): active; positive
mutagenic call (Species/Cell Type: Nonhuman, Assay Type: Sister-chromatid exchange (SCE) in vitro, Assay Code: SC2+, Evaluation Type: Evaluation B (Post-1980)): active; positive

Cc1cc(C)cc(O)c1
mutagenic call (Species/Cell Type: Allium cepa, Assay Type: Chromosome aberrations, Assay Code: ALCT, Evaluation Type: Evaluation A (Pre-1980)): no conclusion

CN(N=O)C(=O)Nc1nc2ccccc2s1
mutagenic call [4]: active; positive
mutagenic call [6]: active; positive

CC(=O)Nc1ccc(/C=C/c2ccccc2)cc1
mutagenic call (Species/Cell Type: Human diploid fibroblasts, Assay Type: Unscheduled DNA synthesis (UDS) in vitro, DNA effects, Assay Code: UDH-, Evaluation Type: Evaluation A (Pre-1980)): inactive; negative
mutagenic call [9]: active; positive

Cn1c(=O)c(N)c(-c2ccccc2)c2cc(Cl)ccc21
mutagenic call (Species/Cell Type: Salmonella typhimurium (one or more of the five standard strains: TA98, TA100, TA1535, TA1537, and TA1538), Assay Type: Histidine reverse gene mutation, Ames assay, Assay Code: SALT, Evaluation Type: Evaluation A (Pre-1980)): no conclusion

Cc1ccc2c(C)c3ccc4ccccc4c3nc2c1
mutagenic call [9]: active; positive

ClC1=C(Cl)[C@]2(Cl)[C@@H]3[C@@H]4C[C@@H]([C@H]5O[C@@H]45)[C@@H]3[C@@]1(Cl)C2(Cl)Cl
mutagenic call (Species/Cell Type: Chinese hamster lung (V79) cells, Assay Type: Forward gene mutation at the HPRT or ouabain locus, Assay Code: V79+, Evaluation Type: Evaluation A (Pre-1980)): active; positive
mutagenic call (Species/Cell Type: Drosophila melanogaster, Assay Type: Sex-linked recessive lethal gene mutation, Assay Code: SRLT, Evaluation Type: Evaluation A (Pre-1980)): no conclusion
mutagenic call (Species/Cell Type: Rodents, Sex: Male, Assay Type: Dominant lethal test, Assay Code: DLT-, Evaluation Type: Evaluation A (Pre-1980)): inactive; negative
mutagenic call (Species/Cell Type: Saccharomyces cerevisiae, Assay Type: Forward and reverse gene mutation, mitotic recombination and gene conversion, host-mediated assay, Assay Code: HME-, Evaluation Type: Evaluation A (Pre-1980)): inactive; negative
mutagenic call (Species/Cell Type: Saccharomyces cerevisiae, Assay Type: Mitotic recombination or gene conversion, Assay Code: YEH-, Evaluation Type: Evaluation A (Pre-1980)): inactive; negative
mutagenic call (Species/Cell Type: Salmonella typhimurium (one or more of the five standard strains: TA98, TA100, TA1535, TA1537, and TA1538), Assay Type: Histidine reverse gene mutation, Ames assay, Assay Code: SAL-, Evaluation Type: Evaluation A (Pre-1980)): inactive; negative

Cc1ccc(S(=O)(=O)NC(=O)NN2CCCCCC2)cc1
mutagenic call (Species/Cell Type: Nonhuman, Assay Type: Sister-chromatid exchange (SCE) in vivo, Assay Code: SC3T, Evaluation Type: Evaluation B (Post-1980)): no conclusion

COc1cc(C)c(-c2csc(N(C)C(=O)Nc3ccc(Cl)cc3)n2)cc1OC
mutagenic call [8]: active; positive

O=NN1CCCN(N=O)CC1
mutagenic call [9]: active; positive

C#C[C@]1(O)CC[C@H]2[C@@H]3CCc4cc(O)ccc4[C@H]3CC[C@@]21C
mutagenic call [2]: active; positive
mutagenic call (Species/Cell Type: Mouse (BALB/c-3T3) cells, Assay Type: Cell transformation, Assay Code: CTB-, Evaluation Type: Evaluation A (Pre-1980)): inactive; negative
call [5]: active; positive
mutagenic call (Species/Cell Type: Syrian hamster embryo (SHE) cells, Assay Type: Cell transformation, clonal assay, Assay Code: CTC-, Evaluation Type: Evaluation A (Pre-1980)): inactive; negative

CCCCN(CCC(C)=O)N=O
mutagenic call [9]: active; positive

ONc1ccc(-c2ccccc2)cc1
mutagenic call [7]: active; positive

NOS(=O)(=O)O
mutagenic call [1]: active; positive

O=c1c(O)c(-c2ccc(O)c(O)c2)oc2cc(O)cc(O)c12
mutagenic call (Species/Cell Type: Chinese hamster ovary (CHO) cells, Assay Type: Forward gene mutation at the HPRT locus, Assay Code: CHOT, Evaluation Type: Evaluation B (Post-1980)): no conclusion
mutagenic call (Species/Cell Type: Human lymphocytes, Assay Type: Sister-chromatid exchange (SCE) in vitro, Assay Code: SCL+D, Dose Response: With dose response, Evaluation Type: Evaluation B (Post-1980)): active; positive
mutagenic call (Species/Cell Type: Human, Assay Type: Sister-chromatid exchange (SCE) in vitro, Assay Code: SC1+D, Dose Response: With dose response, Evaluation Type: Evaluation B (Post-1980)): active; positive
mutagenic call [3]: active; positive
mutagenic call (Species/Cell Type: Nonhuman, Assay Type: Sister-chromatid exchange (SCE) in vitro, Assay Code: SC2+/-*, Activation: With metabolic activation, Evaluation Type: Evaluation B (Post-1980)): inactive; positive without activation, negative with activation
mutagenic call (Species/Cell Type: Nonhuman, Assay Type: Sister-chromatid exchange (SCE) in vivo, Assay Code: SC3-, Evaluation Type: Evaluation B (Post-1980)): inactive; negative
mutagenic call [6]: active; positive
mutagenic call [7]: active; positive
